Measured values from patent US11298314B2, “Injectable composition for localized fat reduction without pain, edema, and side effects, and method for preparing same” (AMI PHARM CO., LTD., priority 2017, dated 2022).

Experiments:
paw of the rats = test: Rat paw edema; format: in vivo, Sprague Dawley rats; conditions: for degree of edema in words: 2 hours after administration, rat paw; for degree of edema, 1 hour after administration / degree of edema, 2 hours after administration / degree of edema, Immediately after administration: 0.1 ml into rat paw
Experimental: (§1) To evaluate the degree of edema, each test compositions described above were injected into the paw of the rats. Specifically, male Sprague Dawley rats (6 weeks old) were purchased and used after one week of adaptation. The rats (body weight: 170˜200 g) were randomly selected and the thickness of the rat paw were measured with a caliper before the administration of the test compositions. In order to observe the edema, 0.1 ml of PBS and the various test compositions were administered to the paws of the rats. Measurements of the […] were performed by a caliper immediately before the injection, immediately after the injection, and 1 or 2 hours after the injection. In addition, when the thickness was measured, the skin lesion of the injection site was observed by photographing the sole of the paw (using a 4×4 cm scale).
The degree of edema was evaluated as 0 to 4 grades.

sole of the rat paws = test: Measurement of skin lesion (erythema) on rat paw; format: in vivo, Sprague Dawley rats; conditions: for skin lesion (erythema) in words: 2 hours after administration;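 for grade of skin lesion (erythema), 1 hour after administration: grades − to ++++ mean no to extremely severe erythema versus before injection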;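 for grade of skin lesion (erythema), 2 hours after administration: grades − to ++++ mean no to extremely severe erythema versus before injection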;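 for grade of skin lesion (erythema), Immediately after administration: grades − to ++++ mean no to extremely severe erythema versus before injection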
Experimental: as §1
The grades of skin lesion were evaluated as 0 to 4 grades.

[1] = tested on: tissues of the injected area (rat paw); test: H&E staining histological test (inflammation) of injected rat paw; format: in vivo, Sprague Dawley rats; conditions: for Inflammation (H&E), BA % (w/v) 1.0: bile acid single composition 1.0% (w/v); for Inflammation (H&E), BA % (w/v) 1.0 / Inflammation (H&E), BA % (w/v) 2.5 / Inflammation (H&E), BA % (w/v) 5.0: injected rat paw; for Inflammation (H&E), BA % (w/v) 2.5: bile acid single composition 2.5% (w/v); for Inflammation (H&E), BA % (w/v) 5.0: bile acid single composition 5.0% (w/v)
Experimental: The tissues of the injected area were dissected, fixed with 10% formalin, and then the specimen was prepared and images were captured using an optical microscope. The degree of inflammation was evaluated as follows.

[2] = Formulation stability of PPC injectable preparations: property, transparency, particle size, pH; conditions: for bile acid/PPC molar ratio below which a substantially stable formulation did not occur: PPC 5.0%; for bile acid concentration at which stable injectable preparations can be made: based on PPC 5.0%
[3] = bile acid single composition 1.0% (w/v)
[4] = bile acid single composition 2.5% (w/v)
[5] = bile acid single composition 5.0% (w/v)
[6] = bile acid single composition 7.5% (w/v)

C[C@H](CCC(=O)O)[C@H]1CC[C@H]2[C@@H]3[C@@H](O)C[C@@H]4C[C@H](O)CC[C@]4(C)[C@H]3CC[C@]12C [UDCA, (4R)-4-[(3R,5S,7S,8R,9S,10S,13R,14S,17R)-3,7-dihydroxy-10,13-dimethyl-2,3,4,5,6,7,8,9,11,12,14,15,16,17-tetradecahydro-1H-cyclopenta[a]phenanthren-17-yl]pentanoic acid]
degree of edema in words (paw of the rats; listed as UDCA 1.0%): moderate
degree of edema in words (paw of the rats; listed as UDCA 2.5%): “severe” and “extremely severe”
degree of edema, 1 hour after administration (paw of the rats; [3]): ++ (moderate edema [++, (the degree of swelling was 20-40% compared to before the injection)])
degree of edema, 2 hours after administration (paw of the rats; [3]): ++ (moderate edema [++, (the degree of swelling was 20-40% compared to before the injection)])
degree of edema, Immediately after administration (paw of the rats; [3]): ++ (moderate edema [++, (the degree of swelling was 20-40% compared to before the injection)])
degree of edema, 1 hour after administration (paw of the rats; [4]): +++ (severe edema [+++, (the degree of swelling was 40-60% compared to before the injection)])
degree of edema, 2 hours after administration (paw of the rats; [4]): ++++ (extremely severe edema [++++, (the degree of swelling was 60% or more compared to before the injection)])
degree of edema, Immediately after administration (paw of the rats; [4]): ++ (moderate edema [++, (the degree of swelling was 20-40% compared to before the injection)])
degree of edema, 1 hour after administration (paw of the rats; [5]): ++++ (extremely severe edema [++++, (the degree of swelling was 60% or more compared to before the injection)])
degree of edema, 2 hours after administration (paw of the rats; [5]): ++++ (extremely severe edema [++++, (the degree of swelling was 60% or more compared to before the injection)])
degree of edema, Immediately after administration (paw of the rats; [5]): ++ (moderate edema [++, (the degree of swelling was 20-40% compared to before the injection)])
degree of edema, 1 hour after administration (paw of the rats; [6]): ++++ (extremely severe edema [++++, (the degree of swelling was 60% or more compared to before the injection)])
degree of edema, 2 hours after administration (paw of the rats; [6]): ++++ (extremely severe edema [++++, (the degree of swelling was 60% or more compared to before the injection)])
degree of edema, Immediately after administration (paw of the rats; [6]): ++ (moderate edema [++, (the degree of swelling was 20-40% compared to before the injection)])
skin lesion (erythema) in words (sole of the rat paws; listed as UDCA 1.0%): Moderate
skin lesion (erythema) in words (sole of the rat paws; listed as UDCA 2.5%): “severe” and “extremely severe”
grade of skin lesion (erythema), 1 hour after administration (sole of the rat paws; [3]): ++
grade of skin lesion (erythema), 2 hours after administration (sole of the rat paws; [3]): ++
grade of skin lesion (erythema), Immediately after administration (sole of the rat paws; [3]): +
grade of skin lesion (erythema), 1 hour after administration (sole of the rat paws; [4]): ++
grade of skin lesion (erythema), 2 hours after administration (sole of the rat paws; [4]): +++
grade of skin lesion (erythema), Immediately after administration (sole of the rat paws; [4]): ++
grade of skin lesion (erythema), 1 hour after administration (sole of the rat paws; [5]): ++++
grade of skin lesion (erythema), 2 hours after administration (sole of the rat paws; [5]): ++++
grade of skin lesion (erythema), Immediately after administration (sole of the rat paws; [5]): ++
grade of skin lesion (erythema), 1 hour after administration (sole of the rat paws; [6]): ++++
grade of skin lesion (erythema), 2 hours after administration (sole of the rat paws; [6]): ++++
grade of skin lesion (erythema), Immediately after administration (sole of the rat paws; [6]): ++
Inflammation (H&E), BA % (w/v) 1.0 [1]: +++
bile acid/PPC molar ratio below which a substantially stable formulation did not occur [2]: less than 1.12
bile acid concentration at which stable injectable preparations can be made [2]: ≥ 2.7%

C[C@H](CCC(=O)O)[C@H]1CC[C@H]2[C@@H]3[C@H](O)C[C@@H]4C[C@H](O)CC[C@]4(C)[C@H]3CC[C@]12C [CDCA]
degree of edema in words (paw of the rats; listed as CDCA 1.0%): Moderate
degree of edema in words (paw of the rats; listed as CDCA 2.5%): “severe” and “extremely severe”
degree of edema, 1 hour after administration (paw of the rats; [3]): +++ (severe edema [+++, (the degree of swelling was 40-60% compared to before the injection)])
degree of edema, 2 hours after administration (paw of the rats; [3]): +++ (severe edema [+++, (the degree of swelling was 40-60% compared to before the injection)])
degree of edema, Immediately after administration (paw of the rats; [3]): ++ (moderate edema [++, (the degree of swelling was 20-40% compared to before the injection)])
degree of edema, 1 hour after administration (paw of the rats; [4]): +++ (severe edema [+++, (the degree of swelling was 40-60% compared to before the injection)])
degree of edema, 2 hours after administration (paw of the rats; [4]): ++++ (extremely severe edema [++++, (the degree of swelling was 60% or more compared to before the injection)])
degree of edema, Immediately after administration (paw of the rats; [4]): ++ (moderate edema [++, (the degree of swelling was 20-40% compared to before the injection)])
degree of edema, 1 hour after administration (paw of the rats; [5]): ++++ (extremely severe edema [++++, (the degree of swelling was 60% or more compared to before the injection)])
degree of edema, 2 hours after administration (paw of the rats; [5]): ++++ (extremely severe edema [++++, (the degree of swelling was 60% or more compared to before the injection)])
degree of edema, Immediately after administration (paw of the rats; [5]): ++ (moderate edema [++, (the degree of swelling was 20-40% compared to before the injection)])
degree of edema, 1 hour after administration (paw of the rats; [6]): ++++ (extremely severe edema [++++, (the degree of swelling was 60% or more compared to before the injection)])
degree of edema, 2 hours after administration (paw of the rats; [6]): ++++ (extremely severe edema [++++, (the degree of swelling was 60% or more compared to before the injection)])
degree of edema, Immediately after administration (paw of the rats; [6]): ++ (moderate edema [++, (the degree of swelling was 20-40% compared to before the injection)])
skin lesion (erythema) in words (sole of the rat paws; listed as CDCA 1.0%): Moderate
skin lesion (erythema) in words (sole of the rat paws; listed as CDCA 2.5%): “severe” and “extremely severe”
grade of skin lesion (erythema), 1 hour after administration (sole of the rat paws; [3]): ++
grade of skin lesion (erythema), 2 hours after administration (sole of the rat paws; [3]): ++
grade of skin lesion (erythema), Immediately after administration (sole of the rat paws; [3]): +
grade of skin lesion (erythema), 1 hour after administration (sole of the rat paws; [4]): ++++
grade of skin lesion (erythema), 2 hours after administration (sole of the rat paws; [4]): ++++
grade of skin lesion (erythema), Immediately after administration (sole of the rat paws; [4]): ++
grade of skin lesion (erythema), 1 hour after administration (sole of the rat paws; [5]): ++++
grade of skin lesion (erythema), 2 hours after administration (sole of the rat paws; [5]): ++++
grade of skin lesion (erythema), Immediately after administration (sole of the rat paws; [5]): ++
grade of skin lesion (erythema), 1 hour after administration (sole of the rat paws; [6]): ++++
grade of skin lesion (erythema), 2 hours after administration (sole of the rat paws; [6]): ++++
grade of skin lesion (erythema), Immediately after administration (sole of the rat paws; [6]): ++
Inflammation (H&E), BA % (w/v) 1.0 [1]: ++
Inflammation (H&E), BA % (w/v) 2.5 [1]: +++
Inflammation (H&E), BA % (w/v) 5.0 [1]: +++
degree of inflammation (H&E) in words ([1]; rats sacrificed at 3 hours, injected paw): Moderate
bile acid/PPC molar ratio below which a substantially stable formulation did not occur [2]: less than 0.89
bile acid concentration at which stable injectable preparations can be made [2]: ≥ 2.2%

C[C@H](CCC(=O)NCCS(=O)(=O)O)[C@H]1CC[C@H]2[C@@H]3[C@H](O)C[C@@H]4C[C@H](O)CC[C@]4(C)[C@H]3C[C@H](O)[C@]12C [TCA, 2-[[(4R)-4-[(3R,5S,7R,8R,9S,10S,12S,13R,14S,17R)-3,7,12-trihydroxy-10,13-dimethyl-2,3,4,5,6,7,8,9,11,12,14,15,16,17-tetradecahydro-1H-cyclopenta[a]phenanthren-17-yl]pentanoyl]amino]ethanesulfonic acid]
grade of skin lesion (erythema), 2 hours after administration (sole of the rat paws; [3]): −
grade of skin lesion (erythema), 2 hours after administration (sole of the rat paws; [4]): +
grade of skin lesion (erythema), 2 hours after administration (sole of the rat paws; [5]): +
grade of skin lesion (erythema), 2 hours after administration (sole of the rat paws; [6]): ++
Inflammation (H&E), BA % (w/v) 1.0 [1]: +
Inflammation (H&E), BA % (w/v) 2.5 [1]: ++
Inflammation (H&E), BA % (w/v) 5.0 [1]: ++
bile acid concentration at which stable injectable preparations can be made [2]: ≥ 2.5%

C[C@H](CCC(=O)O)[C@H]1CC[C@H]2[C@@H]3[C@H](O)C[C@@H]4C[C@H](O)CC[C@]4(C)[C@H]3C[C@H](O)[C@]12C [CA, (4R)-4-[(3R,5S,7R,8R,9S,10S,12S,13R,14S,17R)-3,7,12-trihydroxy-10,13-dimethyl-2,3,4,5,6,7,8,9,11,12,14,15,16,17-tetradecahydro-1H-cyclopenta[a]phenanthren-17-yl]pentanoic acid]
bile acid concentration at which stable injectable preparations can be made [2]: ≥ 2.2%
